{
  "source": "patent US7517867B2",
  "about": "“Topoisomerase-targeting agents” (Rutgers, The State University of New Jersey, priority 2002, dated 2009)",
  "data": [
    {"smiles": "COc1cc2c(cc1OC)C(CO)Cc1c-2cnc2cc3c(cc12)OCO3", "note": "(centres unmarked) [Compound 208]", "values": [
      {"measurement": "melting point", "value": "231 to 233", "unit": "°C"}
    ]},
    {"smiles": "COc1cc2c(cc1OC)C(CC#N)Cc1c-2cnc2cc3c(cc12)OCO3", "note": "(centres unmarked) [Compound 209]", "values": [
      {"measurement": "melting point", "value": "212 to 214", "unit": "°C"}
    ]}
  ]
}
